In experiment [1] the target is T1, Aspartyl aminopeptidase (Plasmodium falciparum 3D7, UniProt Q8I2J3).
T1 sequence (Q8I2J3 whole entry): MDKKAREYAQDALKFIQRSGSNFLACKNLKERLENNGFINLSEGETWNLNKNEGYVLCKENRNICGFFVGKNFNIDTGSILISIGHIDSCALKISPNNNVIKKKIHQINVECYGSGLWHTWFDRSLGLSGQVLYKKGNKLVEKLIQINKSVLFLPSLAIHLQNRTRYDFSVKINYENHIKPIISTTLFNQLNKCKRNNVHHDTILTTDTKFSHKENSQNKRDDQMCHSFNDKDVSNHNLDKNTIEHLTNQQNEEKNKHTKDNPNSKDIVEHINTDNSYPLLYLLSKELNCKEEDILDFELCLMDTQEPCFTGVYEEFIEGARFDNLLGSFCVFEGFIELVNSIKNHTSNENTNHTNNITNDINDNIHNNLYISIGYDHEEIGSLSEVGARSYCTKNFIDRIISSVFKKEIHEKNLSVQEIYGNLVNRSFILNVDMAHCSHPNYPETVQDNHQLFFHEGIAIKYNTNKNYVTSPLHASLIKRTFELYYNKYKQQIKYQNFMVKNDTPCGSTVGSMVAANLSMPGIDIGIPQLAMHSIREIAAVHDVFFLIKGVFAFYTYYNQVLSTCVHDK
Put plainly: Counterscreen for inhibitors of M1 and M17 aminopeptidases: QFRET-based biochemical high throughput dose response assay for inhibitors of the Plasmodium falciparum M18 Aspartyl Aminopeptidase (PFM18AAP). [Related PubChem assays: 1619 (Screening assay (M17LAP inhibitors).), 1445 (Screening assay (M1AAP inhibitors).)].

The target in experiment [2] is Procathepsin L (Homo sapiens, UniProt P07711). As to the kind of experiment: CTSL1 protease inhibition – biochemical, QFRET, 1536-well, counter-screen for M1/M17 aminopeptidase inhibitor project, dose response (AID 2214).
Experiment [3] concerns the target T2, Short transient receptor potential channel 4 (Mus musculus, UniProt Q9QUQ5).
T2 sequence (Q9QUQ5 whole entry): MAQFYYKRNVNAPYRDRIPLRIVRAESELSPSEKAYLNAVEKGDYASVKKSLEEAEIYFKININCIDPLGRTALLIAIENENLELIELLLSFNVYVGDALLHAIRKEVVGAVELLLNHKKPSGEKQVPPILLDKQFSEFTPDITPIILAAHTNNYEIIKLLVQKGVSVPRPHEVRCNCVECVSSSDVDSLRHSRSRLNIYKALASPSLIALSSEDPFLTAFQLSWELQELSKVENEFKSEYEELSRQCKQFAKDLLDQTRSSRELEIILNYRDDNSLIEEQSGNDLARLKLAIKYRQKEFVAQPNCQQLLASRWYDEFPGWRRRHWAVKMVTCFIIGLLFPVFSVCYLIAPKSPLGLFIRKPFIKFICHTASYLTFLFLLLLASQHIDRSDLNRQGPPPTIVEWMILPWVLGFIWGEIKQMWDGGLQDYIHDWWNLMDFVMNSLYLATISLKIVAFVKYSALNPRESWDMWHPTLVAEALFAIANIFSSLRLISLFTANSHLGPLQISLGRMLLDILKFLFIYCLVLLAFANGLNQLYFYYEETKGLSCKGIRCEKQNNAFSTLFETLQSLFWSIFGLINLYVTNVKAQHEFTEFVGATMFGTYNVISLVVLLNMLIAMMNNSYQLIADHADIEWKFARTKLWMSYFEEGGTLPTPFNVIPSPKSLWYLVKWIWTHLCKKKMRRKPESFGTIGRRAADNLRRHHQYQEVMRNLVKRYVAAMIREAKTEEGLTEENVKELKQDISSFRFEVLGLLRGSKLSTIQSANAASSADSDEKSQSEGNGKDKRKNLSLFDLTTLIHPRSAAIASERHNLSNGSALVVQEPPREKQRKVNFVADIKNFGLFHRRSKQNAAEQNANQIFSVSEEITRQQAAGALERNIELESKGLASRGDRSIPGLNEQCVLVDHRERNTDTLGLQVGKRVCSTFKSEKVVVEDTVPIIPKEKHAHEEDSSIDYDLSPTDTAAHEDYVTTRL
As to the kind of experiment: block of DAMGO-driven TRPC4 calcium entry – cell-based, HEK293 TRPC4/mu-opioid, Fluo-4 calcium, dose response (AID 434942).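 Further: potency of inhibitors blocking the TRPC4 calcium response.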 The format is functional.

In experiment [4] the target is Genome polyprotein (dengue virus type 2, UniProt P29990). Put plainly: flavivirus cap methylation enzyme inhibition – biochemical, confirmation dose response, primary screen (AID 588689). The format is functional.
Experiment [5] has as its target T3, Leucine aminopeptidase (Plasmodium falciparum 3D7, UniProt Q8IL11).
T3 sequence (Q8IL11 whole entry): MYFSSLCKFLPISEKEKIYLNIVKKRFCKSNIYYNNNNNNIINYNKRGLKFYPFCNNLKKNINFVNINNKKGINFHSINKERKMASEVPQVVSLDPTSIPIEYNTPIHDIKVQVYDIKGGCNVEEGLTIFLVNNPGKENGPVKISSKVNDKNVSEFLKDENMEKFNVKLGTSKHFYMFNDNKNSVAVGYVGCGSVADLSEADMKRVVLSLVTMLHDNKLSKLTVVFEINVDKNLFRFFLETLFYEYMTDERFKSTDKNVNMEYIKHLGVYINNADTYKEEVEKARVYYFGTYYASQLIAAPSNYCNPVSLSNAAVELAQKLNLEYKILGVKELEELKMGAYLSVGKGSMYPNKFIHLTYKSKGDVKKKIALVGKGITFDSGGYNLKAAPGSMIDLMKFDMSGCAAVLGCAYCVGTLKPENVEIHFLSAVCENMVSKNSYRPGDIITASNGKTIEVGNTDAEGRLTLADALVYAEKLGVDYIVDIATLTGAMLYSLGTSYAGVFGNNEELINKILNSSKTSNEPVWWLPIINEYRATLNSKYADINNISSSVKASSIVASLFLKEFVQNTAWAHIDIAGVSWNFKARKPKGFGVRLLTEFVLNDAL
Put plainly: P. falciparum M17LAP inhibitors, primary screen, biochemical, fluorogenic H-Leu-NHMec substrate, 1536-well (AID 1619). The format is functional.

The target of experiment [6] is T4, Protein skinhead-1 (Caenorhabditis elegans, UniProt P34707).
T4 sequence (P34707 whole entry): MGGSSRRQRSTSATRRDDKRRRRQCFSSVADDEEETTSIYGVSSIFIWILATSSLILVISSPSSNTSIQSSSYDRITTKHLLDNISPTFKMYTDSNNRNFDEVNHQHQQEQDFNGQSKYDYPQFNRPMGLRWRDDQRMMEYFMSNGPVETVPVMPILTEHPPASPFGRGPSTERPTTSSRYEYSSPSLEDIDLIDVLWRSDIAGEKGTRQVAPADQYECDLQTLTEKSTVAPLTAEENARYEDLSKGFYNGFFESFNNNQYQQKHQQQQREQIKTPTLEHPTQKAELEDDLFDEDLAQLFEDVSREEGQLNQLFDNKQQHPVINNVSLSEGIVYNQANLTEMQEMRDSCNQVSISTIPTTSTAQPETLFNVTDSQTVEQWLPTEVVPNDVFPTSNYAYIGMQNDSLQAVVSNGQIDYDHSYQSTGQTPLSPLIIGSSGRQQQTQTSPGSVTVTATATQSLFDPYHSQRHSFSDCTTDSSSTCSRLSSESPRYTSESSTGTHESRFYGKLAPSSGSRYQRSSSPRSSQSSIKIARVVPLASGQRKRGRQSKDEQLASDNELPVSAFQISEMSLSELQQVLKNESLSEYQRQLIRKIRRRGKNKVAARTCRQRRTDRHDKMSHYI
The format is functional.

Experiment [7] concerns the target T5, Estrogen receptor (Homo sapiens, UniProt P03372).
T5 sequence (P03372 whole entry): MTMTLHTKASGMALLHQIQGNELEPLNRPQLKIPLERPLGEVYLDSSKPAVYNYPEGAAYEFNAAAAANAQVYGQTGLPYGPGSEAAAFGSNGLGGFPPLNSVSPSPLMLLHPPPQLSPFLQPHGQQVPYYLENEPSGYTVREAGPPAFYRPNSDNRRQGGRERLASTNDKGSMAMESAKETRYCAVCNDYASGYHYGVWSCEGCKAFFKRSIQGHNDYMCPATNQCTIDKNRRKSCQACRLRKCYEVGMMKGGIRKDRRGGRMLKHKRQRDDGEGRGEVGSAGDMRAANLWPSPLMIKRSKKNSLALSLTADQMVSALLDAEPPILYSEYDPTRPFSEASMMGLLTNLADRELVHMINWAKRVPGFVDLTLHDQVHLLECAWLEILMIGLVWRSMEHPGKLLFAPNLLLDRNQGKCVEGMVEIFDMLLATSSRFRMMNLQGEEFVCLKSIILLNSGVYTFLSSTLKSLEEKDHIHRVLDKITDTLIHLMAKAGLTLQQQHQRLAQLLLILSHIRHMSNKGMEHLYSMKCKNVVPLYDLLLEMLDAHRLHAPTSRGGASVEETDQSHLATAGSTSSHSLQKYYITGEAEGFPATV

A short description of experiment [8]: blockers of CRF-binding protein–CRF-R2 complex – cell-based, uHTS hits, 384-well, dose response (AID 651639). The format is functional, Homo sapiens. Conditions: read-out: IC50_Mean.
The target of experiment [9] is T6, Corticotropin-releasing factor receptor 2/Corticotropin-releasing factor-binding protein (Homo sapiens, UniProt P24387+Q13324).
T6 sequence (Q13324 whole entry): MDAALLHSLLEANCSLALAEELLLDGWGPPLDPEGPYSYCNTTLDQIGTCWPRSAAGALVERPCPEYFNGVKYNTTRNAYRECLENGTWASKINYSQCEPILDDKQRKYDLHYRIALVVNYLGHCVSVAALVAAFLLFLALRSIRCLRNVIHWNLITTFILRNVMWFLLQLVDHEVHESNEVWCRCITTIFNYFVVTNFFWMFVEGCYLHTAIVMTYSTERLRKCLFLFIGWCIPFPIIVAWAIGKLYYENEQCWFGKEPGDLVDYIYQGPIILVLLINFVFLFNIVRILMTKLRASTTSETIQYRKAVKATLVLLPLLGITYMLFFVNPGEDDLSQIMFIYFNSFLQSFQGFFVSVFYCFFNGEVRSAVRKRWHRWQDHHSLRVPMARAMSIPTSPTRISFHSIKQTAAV
T6 sequence (P24387 whole entry): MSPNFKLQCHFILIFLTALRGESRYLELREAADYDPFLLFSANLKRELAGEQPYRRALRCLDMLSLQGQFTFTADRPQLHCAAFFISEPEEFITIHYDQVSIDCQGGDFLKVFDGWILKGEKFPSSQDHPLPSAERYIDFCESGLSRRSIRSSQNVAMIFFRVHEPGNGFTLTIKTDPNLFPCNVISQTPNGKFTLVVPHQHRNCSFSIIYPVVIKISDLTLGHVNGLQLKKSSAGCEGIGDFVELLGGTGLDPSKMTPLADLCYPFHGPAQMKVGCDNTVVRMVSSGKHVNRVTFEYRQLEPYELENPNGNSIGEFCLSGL
As to the kind of experiment: Dose Response confirmation of uHTS hits for small molecule antagonists of the CRF-binding protein and CRF-R2 receptor complex. The experiment is classed as functional. Conditions: read-out: IC50_Mean.

The target of experiment [10] is T6, Corticotropin-releasing factor receptor 2/Corticotropin-releasing factor-binding protein. As to the kind of experiment: activators of CRF receptor 2 with binding protein – uHTS hits, confirmation (AID 602473). The experiment is classed as functional. Conditions: read-out: EC50_Mean.
For experiment [11], the target named is Estrogen receptor beta (Homo sapiens, UniProt Q92731).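 Further: recombinant ER-beta bound to coactivator SRC1 peptide in presence of estradiol agonist; inhibitors block coactivator peptide binding and lower the FRET signal.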

IC50 and EC50 data for five molecules are collected here from ChEMBL document CHEMBL1201862, “PubChem BioAssay data set” (2004).

Calls of active or inactive are those of the source.

Procathepsin L, sequence (P07711 whole entry): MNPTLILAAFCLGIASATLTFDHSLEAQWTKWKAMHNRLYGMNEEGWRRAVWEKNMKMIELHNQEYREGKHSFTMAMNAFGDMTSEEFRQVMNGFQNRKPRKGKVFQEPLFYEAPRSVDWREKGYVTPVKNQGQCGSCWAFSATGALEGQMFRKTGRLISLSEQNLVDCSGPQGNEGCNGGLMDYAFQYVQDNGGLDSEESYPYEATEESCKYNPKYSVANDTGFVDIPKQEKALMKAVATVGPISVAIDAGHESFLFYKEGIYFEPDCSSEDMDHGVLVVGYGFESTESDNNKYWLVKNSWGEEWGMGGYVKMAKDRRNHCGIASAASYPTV
Genome polyprotein, sequence (P29990 2492-3391 limits assumed): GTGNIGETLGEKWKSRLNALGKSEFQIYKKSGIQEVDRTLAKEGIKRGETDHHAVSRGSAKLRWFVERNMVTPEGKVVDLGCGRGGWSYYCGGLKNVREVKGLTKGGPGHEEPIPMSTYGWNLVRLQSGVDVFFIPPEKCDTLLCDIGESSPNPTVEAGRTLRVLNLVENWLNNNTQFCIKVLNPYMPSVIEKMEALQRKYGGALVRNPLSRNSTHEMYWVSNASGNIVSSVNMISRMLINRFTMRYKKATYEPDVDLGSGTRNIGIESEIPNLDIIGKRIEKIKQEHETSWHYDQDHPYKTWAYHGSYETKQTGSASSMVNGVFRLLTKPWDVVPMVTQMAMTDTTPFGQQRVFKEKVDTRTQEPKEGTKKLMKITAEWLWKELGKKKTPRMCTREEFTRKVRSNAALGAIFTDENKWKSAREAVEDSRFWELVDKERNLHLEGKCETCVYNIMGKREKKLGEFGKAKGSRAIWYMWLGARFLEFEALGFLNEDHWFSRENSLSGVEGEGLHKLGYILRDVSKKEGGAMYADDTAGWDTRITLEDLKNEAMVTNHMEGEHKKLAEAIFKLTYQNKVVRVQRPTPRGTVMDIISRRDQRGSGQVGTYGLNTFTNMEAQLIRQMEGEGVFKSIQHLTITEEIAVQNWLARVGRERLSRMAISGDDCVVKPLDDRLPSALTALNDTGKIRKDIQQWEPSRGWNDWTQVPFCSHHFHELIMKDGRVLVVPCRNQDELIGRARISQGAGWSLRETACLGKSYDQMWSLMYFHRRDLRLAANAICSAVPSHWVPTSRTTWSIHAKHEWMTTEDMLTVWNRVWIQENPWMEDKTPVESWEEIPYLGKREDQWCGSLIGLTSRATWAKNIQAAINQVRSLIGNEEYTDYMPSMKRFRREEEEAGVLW
Estrogen receptor beta, sequence (Q92731 whole entry): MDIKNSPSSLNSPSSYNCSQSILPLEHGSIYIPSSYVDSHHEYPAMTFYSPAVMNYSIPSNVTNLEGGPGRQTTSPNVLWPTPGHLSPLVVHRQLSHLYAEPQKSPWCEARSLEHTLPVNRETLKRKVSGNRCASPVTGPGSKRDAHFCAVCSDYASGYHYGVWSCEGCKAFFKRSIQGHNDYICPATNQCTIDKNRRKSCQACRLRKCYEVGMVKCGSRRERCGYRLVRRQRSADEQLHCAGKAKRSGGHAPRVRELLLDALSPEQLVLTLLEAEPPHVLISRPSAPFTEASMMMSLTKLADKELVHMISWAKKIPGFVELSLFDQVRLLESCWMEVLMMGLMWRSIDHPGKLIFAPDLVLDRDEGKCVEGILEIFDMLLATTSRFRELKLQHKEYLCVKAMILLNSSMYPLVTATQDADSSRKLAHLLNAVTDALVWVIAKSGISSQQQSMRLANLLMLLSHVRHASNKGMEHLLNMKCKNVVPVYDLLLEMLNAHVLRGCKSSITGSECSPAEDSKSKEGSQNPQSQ

`CCOC(=O)c1c(-c2cccc(C)c2)csc1NC(=O)C1CC=CCC1C(=O)O` (stereo not drawn): the IC50 in experiment [1] was > 73.5 µM (not active); in experiment [2], > 59.6 µM (not active); in experiment [4], 61 µM (active); in experiment [5], 5.96 µM (active). The EC50 in [3] was 7.5 µM (active).
On to `Cc1cc(O)nc(SCC(=O)Nc2cccc(C(F)(F)F)c2)n1`, for which the IC50 in experiment [1] is > 73.5 µM (not active); in [2], > 59.6 µM (not active); in experiment [5] it was 7.15 µM (active).
For `Cc1cc(Cl)cc(C)c1OCCCCN1CCOCC1`, the IC50 in experiment [6] was 38.9 µM (active); in experiment [7], > 50 µM (not active).
Consider `COc1cc(NC(=O)CSc2nc3c(C)ccc(C)c3cc2C)c(C(=O)O)cc1OC`, for which the IC50 is > 73.5 µM (not active) in experiment [1]; 59.3 µM (not active) in experiment [2]; > 20 µM (inactive) in [8]; 10.1 µM (active) in experiment [9]; < 1 µM (active) in [5]. For the same molecule, the EC50 in [10] was > 53 µM (inactive).
Consider `Cc1ccc(C(=O)CSC2=C(C#N)C(c3ccco3)CC(=O)N2)c(C)c1` (stereo not drawn), for which the IC50 in experiment [11] is 16.1 µM (active); in experiment [7], 26.5 µM (active).
